Read-outs that look alike come from different tables or passages of the source.
What was measured:
[1] = cited from earlier work
[2] = samples >20 h postdose, median (IQR)
[3] = system: hospitalized patients with COVID‐19; conditions: cited from earlier work
[4] = cited from earlier work; remark: listed apart in the source
[5] = imatinib N = 197 vs placebo N = 188

Compound | Metabolite AUC as % of the parent AUC ([1]; formed by CYP3A4) | Activity of the metabolite ([1]; relative to imatinib) | Observed total imatinib plasma concentration Ctrough ([2]; COVID-19 subset 1 (model building)) | Observed total imatinib plasma concentration Ctrough ([2]; COVID-19 subset 2 (validation set)) | Drug excreted by renal excretion [1] [%] | Drug excreted via the feces [1] [%] | Excreted unchanged ([1]; of the excreted drug) [%] | Bioavailability ([1]; oral) | Premature treatment stop due to gastrointestinal (GI) toxicity ([3]; CounterCOVID) | Duration of invasive mechanical ventilation compared with placebo [3, 5] | Mortality compared with placebo [3, 5] | Protein bound in blood [4] [%]
Cc1ccc(NC(=O)c2ccc(CN3CCNCC3)cc2)cc1Nc1nccc(-c2cccnc2)n1 [N‐desmethyl imatinib] | ~ 10% | active |  |  |  |  |  |  |  |  |  | 
Cc1ccc(NC(=O)c2ccc(CN3CCN(C)CC3)cc2)cc1Nc1nccc(-c2cccnc2)n1 [imatinib] |  |  | 2156 (738–4179) µg/L | 1791 (928.4–3204) µg/L | 13 | 68 | 25 | almost complete | more imatinib treated patients stopped treatment prematurely | shorter | significantly lower | > 95
